Entries after “also recorded” stand apart in the source; their conditions may differ.
Columns and labels:
FhCL1 [1] = target: T1, FhCL1 (Fasciola hepatica, UniProt Q7JNQ9); assay: FhCL1 inhibition screening, IC50 and slow-binding (fluorogenic substrate Z-VLK-AMC); type: biochemical; conditions: read-out: %Inh FhCL1, 10 µM compound, 20 min preincubation, relative to enzyme alone; SD less than 10%
T1 construct: made in house; host or cells: Hansenula polymorpha (yeast)
Experimental: (§1) Each compound was completely dissolved in dimethylsulfoxide (DMSO) to a concentration of 10 mM to prepare the stock solutions. To evaluate the inhibition of FhCL1 and FhCL3 by quinoxaline 1,4-di-N-oxide derivatives, nanomolar concentrations of each enzyme was incubated with compounds at 10 μM. Briefly, each enzyme and compound were preincubated 20 min in a 96-well plate in 0.1 M sodium phosphate buffer pH 6, 1 mM DTT, and 1 mM EDTA at room temperature. The reaction was initiated by adding 20 μM of substrate and enzyme activity was measured by the increase in aminomethyl coumarin (AMC) fluorescence as peptide substrates were hydrolyzed (Z-VLK-AMC for FhCL1 and Tos-GPR-AMC for FhCL3), at an excitation wavelength of 340 nm and emission wavelength of 440 nm using a spectrofluorometer (Varioskan Thermo, Waltham, MA, USA). Enzyme activity was expressed as RFU/s (relative fluorescence units of AMC released per second). Each compound was tested in triplicate. A control reaction without enzymes was performed to check for the occurrence of non-catalyzed reactions between substrates and inhibitors and a spectrum from 300 to 450 nm wavelength was done for each quinoxaline 1,4-di-N-oxide derivative to verify that none of them had optical activity in the measurement range. The percentage of enzyme inhibition was calculated as 100 − (vi/vo) × 100, where vi and vo correspond to the initial rate of AMC fluorescence increase (RFU/s) with and without inhibitor, respectively.
(§2) To calculate the IC50 values, compounds were incubated with each enzyme at seven different concentrations; 0.625, 1.25, 2.5, 5, 10, 20, and 40 μM. Then, the enzyme activity was measured in a 96-well plate as described before. We plotted initial rates (RFU/s) versus log10 of inhibitor concentrations and obtained the IC50 values by fitting the data to a sigmoid curve. We also carried out slow-binding assays to evaluate the time-dependence of the inhibition. Each compound was incubated at 10 μM with the enzyme for increasing lengths of time; 3 to 120 min and the percentage of inhibition at each time point was determined as described before. We calculated the inhibition percentage of the leader compounds at 10 μM for HsCL1. The enzyme was preincubated for 20 min with the compounds and the activity was measured in a 96-well plate in 400 mM sodium acetate, pH 5.5, with 4 mM EDTA, 8 mM DTT, and 20 μM of substrate Z-VLK-AMC. The percentage of enzyme inhibition was calculated as described for FhCL1 and FhCL3. We determined the IC50 value for C17 against HsCL by incubating the enzyme with four different concentrations of the compound 0, 10, 25, and 50 μM and measuring the activity as described before. We plotted initial rates (RFU/s) versus log10 of inhibitor concentration and obtained the IC50 value by fitting the data to a sigmoid curve.

F. hepatica NEJ [2] = assay: In vitro culture of NEJ and treatment with inhibitors (motility score); type: cell-based; conditions: Fasciola hepatica; after 48 h of incubation with NEJ; read-out: IC50 against NEJ
HepG2 cell line = assay: Cytotoxicity on the HepG2 cell line (Sulforhodamin B); type: cell-based; conditions: Homo sapiens, 24 h incubation with compound
Experimental: (§3) Cytotoxicity studies on the HepG2 cell line. Cells: 1.5 × 10^4 cells per 96-well plate were cultured in 225 µL of DMEM medium, supplemented with L-glutamine (1%), penicillin/streptomycin (1%), and 10% (v/v) fetal bovine serum (FBS). The cultures were maintained at 37 °C and 5% CO2 for 48 h. Treatment: Compound solutions were prepared just before dosing. Stock solutions, […], were prepared in 100% DMSO (Aldrich, Saint Louis, MO, USA) and 25 µL of adequate dilution was added to each well 24 h after plating the cells. For each compound, a dose-response curve was done with five different compound concentrations: 6.25, 12.5, 25, 50, and 100 µM (treated cells, T). No effect on cell growth was observed by the presence of 0.5% DMSO in the culture media (control cells, C). Cells were incubated with the compounds for 24 h at 37 °C in 5% CO2 atmosphere, then the medium was discarded and the cells were washed with PBS. The cells were then fixed with 50 µL of TCA (50%) and 200 µL of culture medium (without FBS) for 1 h at 4 °C. Then the cells were washed with purified water and treated with Sulforhodamin B (0.4% wt/vol in 1% acetic acid) for 10 min at room temperature. The plates were then washed with 1% acetic acid and dried overnight. Finally, 100 µL of Tris buffer (pH = 10.0) was added and absorbance read at 540 nm. Data calculations: The assays were done in four replicates. At the end of the experiment, the cell survival percentage (SP) was calculated for each compound as (T/C) × 100. To determine the IC50, the SP of cells at each compound concentration was plotted and the data were fitted to a sigmoid curve. The standard error was not greater than 10% for any condition. For the cytotoxicity assay with bovine spermatozoa, semen samples were obtained from a healthy fertile Hereford bull and kept frozen in 0.5 mL straws (extended in Andromed, Minitube, Tiefenbach, Germany) under liquid nitrogen until use. The semen used belonged to a single freezing batch that was obtained during a regular collection schedule with an artificial vagina. Samples from three straws were thawed and a sperm pool was prepared in PBS at a concentration of 80 million spermatozoa per ml. Then, 50 μL of this pool was carefully mixed with 50 μL of each compound to be tested at a concentration of 50 µM or 1% DMSO in control experiments. Each compound was assayed in triplicate in 96-well plates and controls were assayed in triplicate. Plates were incubated at 37 °C for 1 h with moderate shaking. The motility analysis was carried out using a CASA (Computer Assisted Semen Analyzer) system Androvision (Minitube, Tiefenbach, Germany) with an Olympus BX 41 microscope (Olympus, Japan) equipped with a warm-stage at 37 °C. Each sample (10 μL) was placed onto a Makler Counting Chamber (depth 10 μm, Sefi-Medical Instruments, Haifa, Israel) and the following parameters were evaluated: percentage of total motile spermatozoa (motility >5 μm/s) and velocity curved line (VCL > 24 μm/s). At least 400 spermatozoa were analyzed from each sample from at least four microscope fields.

bovine spermatozoa = assay: Cytotoxicity assay with bovine spermatozoa (CASA motility); type: cell-based; conditions: 50 µM, 1 h at 37 °C, relative to control sperm incubated with vehicle
Experimental: as §3

human cathepsin L (HsCL) = human cathepsin L (HsCL) (Homo sapiens, UniProt P07711); assay: Human cathepsin L (HsCL) inhibition, selectivity assessment; type: biochemical
Sequence of human cathepsin L (HsCL) (P07711 114-333): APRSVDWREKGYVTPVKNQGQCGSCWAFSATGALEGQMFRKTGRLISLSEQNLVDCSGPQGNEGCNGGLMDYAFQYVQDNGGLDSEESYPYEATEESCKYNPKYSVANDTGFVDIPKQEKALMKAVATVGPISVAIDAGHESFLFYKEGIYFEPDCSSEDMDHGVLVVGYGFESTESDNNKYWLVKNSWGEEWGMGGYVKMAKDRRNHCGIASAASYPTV
Experimental: as §2

FhCL1 [3] = target: T1, FhCL1; assay: FhCL1 inhibition screening, IC50 and slow-binding (fluorogenic substrate Z-VLK-AMC); type: biochemical; conditions: 10 μM, preincubation 5 to 120 min
F. hepatica NEJ [4] = assay: In vitro culture of NEJ and treatment with inhibitors (motility score); type: cell-based, Fasciola hepatica; conditions: 50 μM compound, over 96 h
Experimental: F. hepatica metacercariae were acquired from Instituto Miguel C. Rubino (DILAVE, MGAP, Uruguay). NEJ were obtained by in vitro excystement as previously described with minor modifications. Briefly, metacercariae were incubated with 1% sodium hypochlorite for 5 min at room temperature to remove the outer cyst wall and then washed several times with PBS. Metacercariae activation was carried out in a medium prepared by mixing equal volumes of solution A (0.4% sodium taurocholate, 120 mM NaHCO3, 140 mM NaCl, pH 8.0) and solution B (50 mM HCl and 33 mM L-cysteine), and incubating at 39 °C until the NEJ begin to emerge (around 3–4 h). A 100 μm filter was used to retain the cyst wall. Collected NEJ were washed three times with RPMI-1640 supplemented with 200 U/mL Penicillin G sulfate, […] streptomycin sulfate, 500 ng/mL amphotericin B, 10 mM HEPES, counted and divided into groups of around 20 parasites that were transferred to 96 wells in tissue culture plates. Parasites were maintained at 37 °C, 5% CO2 in modified Basch’s medium. At day 1, each tested compound was added at a concentration of 50 μM in 0.5% DMSO. Also, 0.5% of DMSO was added to the control groups. Each condition was tested in duplicate. NEJ behavior was monitored under a light microscope (Olympus BX41, Hamburg, Germany), every day each well was recorded for a minute in order to assess parasite motility and registered using the following score: 3—normally active; 2—reduced activity (sporadic movement); 1—immotile (dead, adapted from). Control parasites were maintained in culture for seven days.

FhCL3 [5] = assay: FhCL3 inhibition screening, IC50 and slow-binding (fluorogenic substrate Tos-GPR-AMC); type: biochemical, Fasciola hepatica; conditions: 10 µM compound, 20 min preincubation, relative to enzyme alone; SD less than 10%
Experimental: as §1, §2

FhCL3 [6] = assay: as above; type: biochemical, Fasciola hepatica; conditions: 10 μM, preincubation 5 to 120 min

T1 sequence (Q7JNQ9 entry or part of it): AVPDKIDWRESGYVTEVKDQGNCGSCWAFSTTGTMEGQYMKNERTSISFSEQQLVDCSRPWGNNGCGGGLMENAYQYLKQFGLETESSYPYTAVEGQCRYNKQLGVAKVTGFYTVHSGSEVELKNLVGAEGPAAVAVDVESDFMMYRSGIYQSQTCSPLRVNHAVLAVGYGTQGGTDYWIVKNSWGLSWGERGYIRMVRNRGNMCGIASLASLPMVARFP

Structure (SMILES)	inhibition at 10 µM (FhCL1 [1])	IC50 (F. hepatica NEJ [2])	IC50 (HepG2 cell line)	Sperm Motility RTC (relative to control) (bovine spermatozoa)	IC50 (human cathepsin L (HsCL); dose-response at 0, 10, 25 and 50 μM)	Selectivity index FhCL1 (human cathepsin L (HsCL); parasite enzyme FhCL1 over human cathepsin L)	Selectivity index FhCL3 (human cathepsin L (HsCL); parasite enzyme FhCL3 over human cathepsin L)	Time-dependence of FhCL1 inhibition (slow-binding) (FhCL1 [3])	Effect on NEJ motility / fasciolicide activity in vitro (F. hepatica NEJ [4])	%Inh FhCL3 (FhCL3 [5])	Time-dependence of FhCL3 inhibition (slow-binding) (FhCL3 [6])
C=CCNC(=S)N/N=C/c1ccc2c(c1)[n+]([O-])c(C(=O)OCC)c(-c1ccccc1)[n+]2[O-] [Compound C17]	≥ 80%	25.1 µM	48 ± 0.3 µM	81 ± 3	13 µM	9.3	2.6	required short times to inhibit FhCL1 enzyme	progressive decrease of parasite motility starting between 24 and 96 h of culture; also recorded: strong fasciolicide activity in vitro		
N#Cc1c(N)[n+]([O-])c2ccc(/C=N/NC(=O)NCCc3ccccc3)cc2[n+]1[O-] [Compound C7]	90%							required short times to inhibit FhCL1 enzyme	did not have activity against the parasites; also recorded: did not have fasciolicidal activity	61%	
CCOC(=O)c1c(-c2ccccc2)[n+]([O-])c2ccc(CN3CCN(C/C=C/c4ccccc4)CC3)cc2[n+]1[O-] [Compound C18]	55%		< 6.2 µM	82 ± 2					progressive decrease of parasite motility starting between 24 and 96 h of culture; also recorded: strong fasciolicide activity in vitro	61%	reached high inhibition of FhCL3 within a few minutes of incubation
C=CCNC(=S)N/N=C/c1ccc2c(c1)[n+]([O-])c(-c1ccccc1)c(C(=O)Nc1ccccc1)[n+]2[O-] [Compound C23]	≥ 80%		12 ± 0.2 µM	82 ± 1				required short times to inhibit FhCL1 enzyme	slightly affected parasite motility; also recorded: did not have fasciolicidal activity		reached high inhibition of FhCL3 within a few minutes of incubation

Reference: publication PMC6651555, “Cathepsin L Inhibitors with Activity against the Liver Fluke Identified From a Focus Library of Quinoxaline 1,4-di-N-Oxide Derivatives” (Molecules, 2019)
